From patent publication US12649750B2, “Macrocyclic compounds, compositions, and methods of using thereof” (Sionna Therapeutics Inc., priority 2022, dated 2026)

Legend:
[1] = target: T1, NBD1 (Homo sapiens, UniProt P13569); test: Aggregation analysis using differential static light scattering (DSLS), thermal stability of NBD1 (ΔTagg); type: binding; conditions: ΔTagg versus DMSO control, NBD1 0.2 mg/ml
T1 construct: Purified recombinant NBD1 was produced using previously described methods; made in house
In short: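 Differential static light scattering read from 25° C. to 70° C. every 0.5° C., ramp 1° C./min, on recombinant NBD1 (0.2 mg/ml; Tris/NaCl/MgCl2 buffer with 2 mM ATP, 2 mM DTT, pH 7.6, 1% glycerol) plus compound. Reported ΔTagg subtracts averaged DMSO Tagg from inflection-point Tagg; categories A ≤5, B >5-10, C >10-25° C.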

[2] = target: T2, CFTR (Homo sapiens, UniProt P13569, DEL508-508); test: TECC24 AUC fold over DMSO @10 μM, CFTR-mediated transepithelial chloride transport in CF-HBE cells; type: cell-based; conditions: test agent AUC divided by DMSO vehicle AUC, primary CF-HBE cells, ΔF508 homozygous donor, 48 hours incubation
T2 construct: Primary human bronchial epithelial cells from a ΔF508 homozygous CF donor; host or cells: primary human bronchial epithelial cells (CF-HBE), ΔF508 homozygous donor
In short: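 Primary ΔF508-homozygous CF bronchial epithelial cells on inserts were incubated 48 h at 36.5 °C with compound in IL-13-containing medium. VT and TEER were then recorded in current-clamp mode (pH 7.4 HEPES bath) with benzamil 10 μM, forskolin 10 μM, then CFTR inhibitor-172 20 μM. The IEQ AUC between forskolin and inhibitor was divided by vehicle AUC.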

T1 sequence (P13569 423-646 limits assumed): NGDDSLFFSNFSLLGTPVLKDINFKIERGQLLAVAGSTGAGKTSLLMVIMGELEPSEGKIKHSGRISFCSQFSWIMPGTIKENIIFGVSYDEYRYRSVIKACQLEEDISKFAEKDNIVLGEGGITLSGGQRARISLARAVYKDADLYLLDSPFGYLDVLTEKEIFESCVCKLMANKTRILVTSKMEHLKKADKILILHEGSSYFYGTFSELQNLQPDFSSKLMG
T2 sequence (P13569 with tags, fused parts or gaps DEL508-508): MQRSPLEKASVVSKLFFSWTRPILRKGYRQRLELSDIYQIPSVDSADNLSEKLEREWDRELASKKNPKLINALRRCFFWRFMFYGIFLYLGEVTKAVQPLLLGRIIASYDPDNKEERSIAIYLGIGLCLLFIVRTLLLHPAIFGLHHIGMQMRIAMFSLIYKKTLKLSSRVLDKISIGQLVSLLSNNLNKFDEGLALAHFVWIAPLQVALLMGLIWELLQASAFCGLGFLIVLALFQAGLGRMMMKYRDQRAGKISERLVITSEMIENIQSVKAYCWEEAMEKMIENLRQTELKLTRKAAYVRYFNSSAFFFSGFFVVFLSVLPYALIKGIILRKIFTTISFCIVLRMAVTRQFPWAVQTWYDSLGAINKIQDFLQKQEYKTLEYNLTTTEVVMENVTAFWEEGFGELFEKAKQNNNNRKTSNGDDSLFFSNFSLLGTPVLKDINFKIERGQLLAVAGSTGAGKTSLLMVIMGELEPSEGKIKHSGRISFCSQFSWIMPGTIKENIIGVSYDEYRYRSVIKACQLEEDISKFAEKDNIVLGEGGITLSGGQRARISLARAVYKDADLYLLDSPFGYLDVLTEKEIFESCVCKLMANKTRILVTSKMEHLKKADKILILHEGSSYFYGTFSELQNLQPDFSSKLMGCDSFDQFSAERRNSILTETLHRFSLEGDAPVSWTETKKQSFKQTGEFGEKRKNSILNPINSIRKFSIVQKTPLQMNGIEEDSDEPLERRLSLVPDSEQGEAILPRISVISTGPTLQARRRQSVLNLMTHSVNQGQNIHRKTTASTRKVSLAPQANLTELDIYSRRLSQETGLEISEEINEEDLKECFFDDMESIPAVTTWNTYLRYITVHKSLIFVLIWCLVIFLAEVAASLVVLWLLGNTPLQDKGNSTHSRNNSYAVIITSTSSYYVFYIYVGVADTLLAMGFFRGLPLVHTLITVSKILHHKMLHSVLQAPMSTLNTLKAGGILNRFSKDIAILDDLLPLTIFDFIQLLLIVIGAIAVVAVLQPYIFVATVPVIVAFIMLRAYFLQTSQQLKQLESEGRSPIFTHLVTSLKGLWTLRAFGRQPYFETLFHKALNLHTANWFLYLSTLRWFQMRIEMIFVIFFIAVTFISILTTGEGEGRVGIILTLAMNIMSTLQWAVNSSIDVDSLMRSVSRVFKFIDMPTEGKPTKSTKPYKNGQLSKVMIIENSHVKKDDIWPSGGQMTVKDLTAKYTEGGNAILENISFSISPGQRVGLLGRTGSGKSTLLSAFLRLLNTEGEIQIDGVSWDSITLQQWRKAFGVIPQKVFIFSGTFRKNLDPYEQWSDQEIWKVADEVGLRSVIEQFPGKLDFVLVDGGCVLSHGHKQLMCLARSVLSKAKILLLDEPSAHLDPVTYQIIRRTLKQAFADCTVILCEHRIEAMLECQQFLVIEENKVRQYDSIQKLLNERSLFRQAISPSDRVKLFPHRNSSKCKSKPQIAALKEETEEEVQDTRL

Compound	DSLS 3D (100 μM ΔT) [1]	TECC (AUC, 10 μM) [2]
CC(Cc1cccc(C2(C#N)CCCC(C)(C)CS(=O)(=O)CCc3c(c(F)cc4[nH]ccc34)Oc3ccc(F)c(c3)-c3nc2nn3C)c1F)C(=O)O (single isomer, unassigned) [Compound 124A, 3-[3-(6-cyano-22,28-difluoro-3,10,10-trimethyl-12,12-dioxo-24-oxa-12λ6-thia-3,4,19,30-tetrazapentacyclo-[23.3.1.12,5.015,23.016,20]triaconta-1(29),2(30),4,15,17,20,22,25,27-nonaen-6-yl)-2-fluoro-phenyl]-2-methyl-propanoic Acid]	C (a value greater than 10 °C and less than or equal to 25 °C is marked “C”)	A (a TECC value less than 12 is marked “A”)
CC(Cc1cccc(C2(C#N)CCCC(C)(C)CS(=O)(=O)CCc3c(c(F)cc4[nH]ccc34)Oc3ccc(F)c(c3)-c3nc2nn3C)c1F)C(=O)O (single isomer, unassigned) [Compound 124B, 3-[3-(6-cyano-22,28-difluoro-3,10,10-trimethyl-12,12-dioxo-24-oxa-12λ6-thia-3,4,19,30-tetrazapentacyclo-[23.3.1.12,5.015,23.016,20]triaconta-1(29),2(30),4,15,17,20,22,25,27-nonaen-6-yl)-2-fluoro-phenyl]-2-methyl-propanoic Acid]	B (a value above 5 °C and less than or equal to 10 °C is marked “B”)	A (a TECC value less than 12 is marked “A”)
C[C@@H](Cc1cccc(C2(C)CCCC(C)(C)CS(=O)(=O)CCc3c(c(F)cc4[nH]ccc34)C(=O)c3ccc(F)c(c3)-c3nc2nn3C)c1)C(=O)O (single isomer, unassigned) [Compound 125A]	B (a value above 5 °C and less than or equal to 10 °C is marked “B”)	B (a value between 12-20 is marked “B”)
C[C@@H](Cc1cccc(C2(C)CCCC(C)(C)CS(=O)(=O)CCc3c(c(F)cc4[nH]ccc34)C(=O)c3ccc(F)c(c3)-c3nc2nn3C)c1)C(=O)O (single isomer, unassigned) [Compound 125B]	C (a value greater than 10 °C and less than or equal to 25 °C is marked “C”)	B (a value between 12-20 is marked “B”)
C[C@H](Cc1cccc(C2(C)CCCC(C)(C)CS(=O)(=O)CCc3c(c(F)cc4[nH]ccc34)C(=O)c3ccc(F)c(c3)-c3nc2nn3C)c1)C(=O)O (single isomer, unassigned) [Compound 126A]	C (a value greater than 10 °C and less than or equal to 25 °C is marked “C”)	B (a value between 12-20 is marked “B”)
C[C@H](Cc1cccc(C2(C)CCCC(C)(C)CS(=O)(=O)CCc3c(c(F)cc4[nH]ccc34)C(=O)c3ccc(F)c(c3)-c3nc2nn3C)c1)C(=O)O (single isomer, unassigned) [Compound 126B]	B (a value above 5 °C and less than or equal to 10 °C is marked “B”)	B (a value between 12-20 is marked “B”)
COc1ccc2cc1-c1nc(nn1C)C(C)(c1cccc(C[C@@H](C)C(=O)O)c1)CCCC(C)(C)CS(=O)(=O)CCc1c(c(F)cc3[nH]ccc13)C2=O (single isomer, unassigned) [Compound 127A]	B (a value above 5 °C and less than or equal to 10 °C is marked “B”)	A (a TECC value less than 12 is marked “A”)
COc1ccc2cc1-c1nc(nn1C)C(C)(c1cccc(C[C@@H](C)C(=O)O)c1)CCCC(C)(C)CS(=O)(=O)CCc1c(c(F)cc3[nH]ccc13)C2=O (single isomer, unassigned) [Compound 127B]	A (an ΔTagg value less than or equal to 5 °C is marked “A”)	A (a TECC value less than 12 is marked “A”)
C[C@@H](Cc1cccc(C2(C)CCCC(C)(C)CS(=O)(=O)CCc3c(c(F)cc4[nH]ccc34)Oc3ccc(F)c(c3)-c3nc2c[nH]3)c1)C(=O)O (single isomer, unassigned) [Compound 129A]	A (an ΔTagg value less than or equal to 5 °C is marked “A”)	A (a TECC value less than 12 is marked “A”)
C[C@@H](Cc1cccc(C2(C)CCCC(C)(C)CS(=O)(=O)CCc3c(c(F)cc4[nH]ccc34)Oc3ccc(F)c(c3)-c3nc2c[nH]3)c1)C(=O)O (single isomer, unassigned) [Compound 129B]	C (a value greater than 10 °C and less than or equal to 25 °C is marked “C”)	A (a TECC value less than 12 is marked “A”)
[2H]C([2H])([2H])C1(c2cccc(C[C@H](C)C(=O)O)c2)CCCC2(COC2)CS(=O)(=O)CCc2c(c(F)cc3[nH]ccc23)Oc2ccc(F)c(c2)-c2nc1nn2C (single isomer, unassigned) [Compound 130A]	C (a value greater than 10 °C and less than or equal to 25 °C is marked “C”)	C (a value between 20 and 80 is marked “C”)
[2H]C([2H])([2H])C1(c2cccc(C[C@H](C)C(=O)O)c2)CCCC2(COC2)CS(=O)(=O)CCc2c(c(F)cc3[nH]ccc23)Oc2ccc(F)c(c2)-c2nc1nn2C (single isomer, unassigned) [Compound 130B]	C (a value greater than 10 °C and less than or equal to 25 °C is marked “C”)	C (a value between 20 and 80 is marked “C”)
CC(Cc1cccc(C2(C)CCCC(C)(C)CS(=O)(=O)CCc3c(c(F)cc4[nH]ccc34)Cn3cc(ccc3=O)-c3nc2nn3C)c1)C(=O)O (single isomer, unassigned) [Compound 132A, 3-[3-(22-fluoro-3,6,10,10-tetramethyl-12,12,26-trioxo-12λ6-thia-3,4,19,25,30-pentazapentacyclo-[23.3.1.12,5.015,23.016,20]triaconta-1(29),2(30),4,15,17,20,22,27-octaen-6-yl)phenyl]-2-methyl-propanoic Acid]	A (an ΔTagg value less than or equal to 5 °C is marked “A”)	A (a TECC value less than 12 is marked “A”)
CC(Cc1cccc(C2(C)CCCC(C)(C)CS(=O)(=O)CCc3c(c(F)cc4[nH]ccc34)Cn3cc(ccc3=O)-c3nc2nn3C)c1)C(=O)O (single isomer, unassigned) [Compound 132B, 3-[3-(22-fluoro-3,6,10,10-tetramethyl-12,12,26-trioxo-12λ6-thia-3,4,19,25,30-pentazapentacyclo-[23.3.1.12,5.015,23.016,20]triaconta-1(29),2(30),4,15,17,20,22,27-octaen-6-yl)phenyl]-2-methyl-propanoic Acid]	C (a value greater than 10 °C and less than or equal to 25 °C is marked “C”)	A (a TECC value less than 12 is marked “A”)
CC(Cc1cccc(C2(CNCC(F)(F)F)CCCC(C)(C)CS(=O)(=O)CCc3c(c(F)cc4[nH]ccc34)Oc3ccc(F)c(c3)-c3nc2nn3C)c1)C(=O)O (single isomer, unassigned) [Compound 133A, 3-[3-[22,28-difluoro-3,10,10-trimethyl-12,12-dioxo-6-[(2,2,2-trifluoroethylamino)methyl]-24-oxa-12λ6-thia-3,4,19,30-tetrazapentacyclo[23.3.1.12,5.015,23.016,20]triaconta-1(29),2(30),4,15,17,20,22,25,27-nonaen-6-yl]phenyl]-2-methyl-propanoic Acid]	C (a value greater than 10 °C and less than or equal to 25 °C is marked “C”)	C (a value between 20 and 80 is marked “C”)
CC(Cc1cccc(C2(CNCC(F)(F)F)CCCC(C)(C)CS(=O)(=O)CCc3c(c(F)cc4[nH]ccc34)Oc3ccc(F)c(c3)-c3nc2nn3C)c1)C(=O)O (single isomer, unassigned) [Compound 133B, 3-[3-[22,28-difluoro-3,10,10-trimethyl-12,12-dioxo-6-[(2,2,2-trifluoroethylamino)methyl]-24-oxa-12λ6-thia-3,4,19,30-tetrazapentacyclo[23.3.1.12,5.015,23.016,20]triaconta-1(29),2(30),4,15,17,20,22,25,27-nonaen-6-yl]phenyl]-2-methyl-propanoic Acid]	B (a value above 5 °C and less than or equal to 10 °C is marked “B”)	A (a TECC value less than 12 is marked “A”)
Cn1nc2nc1-c1cc(ccc1F)Oc1c(F)cc3[nH]ccc3c1CCS(=O)(=O)CC(C)(C)CCCC2(C)c1cccc(CC(O)C(=O)O)c1 (single isomer, unassigned) [Compound 134A, 3-[3-(22,28-Difluoro-3,6,10,10-tetramethyl-12,12-dioxo-24-oxa-12λ6-thia-3,4,19,30-tetrazapentacyclo-[23.3.1.12,5.015,23.016,20]-triaconta-1(29),2(30),4,15,17,20,22,25,27-nonaen-6-yl)phenyl]-2-hydroxy-propanoic Acid]	C (a value greater than 10 °C and less than or equal to 25 °C is marked “C”)	C (a value between 20 and 80 is marked “C”)
Cn1nc2nc1-c1cc(ccc1F)Oc1c(F)cc3[nH]ccc3c1CCS(=O)(=O)CC(C)(C)CCCC2(C)c1cccc(CC(O)C(=O)O)c1 (single isomer, unassigned) [Compound 134B, 3-[3-(22,28-Difluoro-3,6,10,10-tetramethyl-12,12-dioxo-24-oxa-12λ6-thia-3,4,19,30-tetrazapentacyclo-[23.3.1.12,5.015,23.016,20]-triaconta-1(29),2(30),4,15,17,20,22,25,27-nonaen-6-yl)phenyl]-2-hydroxy-propanoic Acid]	A (an ΔTagg value less than or equal to 5 °C is marked “A”)	A (a TECC value less than 12 is marked “A”)
